A short description of data set [1]: Metabolism in human liver microsomes. It counts as in vitro ADME. Conditions: 0.4 mg/mL protein; for microsomal CLint at 1 μM: human, liver microsomes, read-out: CLint of authentic metabolite incubated; for average individual metabolite formed over a 60 min incubation of 1: substrate 1 at 1 μM, percentage of initial substrate concentration, ND = not detected. The procedure: (§1) Following the protocols described by Charman et al.,[28]1 was incubated at 37 °C with human, rat, and rhesus monkey liver microsomes. For the determination of intrinsic clearance, the substrate concentration was 1 μM and the protein concentration was 0.4 mg/mL; for qualitative metabolite identification studies, the substrate and protein concentrations were 10 μM and 1 mg/mL, respectively. The reaction was initiated by the addition of an NADPH-regenerating buffer system, and the samples were incubated for up to 60 (for Clint determination) or 180 min (for additional metabolite identification). Samples without the test compound and without NADPH were also incubated and used as controls. The reaction was quenched by protein precipitation with the addition of an equal volume of ice-cold acetonitrile solution (containing diazepam as an internal standard), followed by vortexing and centrifugation for 3 min at 10000 rpm. The supernatant was removed and analyzed by LC/MS. LC/MS analysis was conducted using a Waters Micromass Xevo G2 QTOF MS coupled to a Waters Acquity UPLC. For metabolite identification, a Supelco Ascentis Express Amide column (50 × 2.1 mm, 2.7 μm) was used with an acetonitrile–water gradient (containing 0.05% formic acid), a flow rate of 0.4 mL/min, a gradient cycle time of 6 min, and an injection volume of 5 μL. MS analysis was conducted using positive mode electrospray ionization under MSE acquisition mode, which allows simultaneous acquisition of MS spectra at low and high collision energies. The identity of putative metabolites was confirmed by the accurate mass and a comparison of the retention times and MS/MS fragmentation patterns with authentic metabolites where available. For metabolite quantitation, the method described below for the analysis of plasma samples was used.

Data set [2] can be described thus: Metabolism in rat liver microsomes. Conditions: 0.4 mg/mL protein; for CLint of authentic metabolite incubated / microsomal CLint at 1 μM: 1 μM substrate, NADPH, 37 °C, 60 min, single incubation; for microsomal CLint at 1 μM: rat, liver microsomes, read-out: CLint of authentic metabolite incubated; for average individual metabolite formed over a 60 min incubation of 1: substrate 1 at 1 μM, percentage of initial substrate concentration, ND = not detected. The class given is in vitro ADME. The procedure: as §1

Data set [3] in a line: Metabolism in rhesus monkey liver microsomes. The settings on record: 0.4 mg/mL protein; for microsomal CLint at 1 μM: rhesus monkey, liver microsomes, read-out: CLint of authentic metabolite incubated; for average individual metabolite formed over a 60 min incubation of 1: substrate 1 at 1 μM, percentage of initial substrate concentration, ND = not detected. The class given is in vitro ADME. The method, then: as §1

Data set [4] has as its system P. cynomolgi schizont (large forms) and hypnozoite (small forms) liver-stage parasites. As to the kind of experiment: P. cynomolgi liver-stage in vitro assay in rhesus monkey hepatocytes. It counts as cell-based. The settings on record: Plasmodium cynomolgi, Hepatocyte, in Macaca mulatta. The procedure: (§2) Compound 1 and its metabolites were tested in both prophylactic and radical cure modes for activity against P. vivax liver-stage parasites.[16],[17] In the prophylactic assay, compounds are added the day after sporozoite invasion into hepatocytes in order to characterize the compound activity against established liver forms with a parasitophorous vacuole membrane (as opposed to activity on preinvasion sporozoites) and prior to complete maturation of hypnozoites into drug-insensitive dormant forms, which appear at about 5 days postinvasion.[18] In the radical cure assay, compounds are added at day 5 postinfection to characterize activity against late-stage schizonts and mature PI4K inhibitor-insensitive hypnozoites.[19] In these experiments, the threshold for activity is 75% inhibition. […] Similarly, as previously described,[20] 10 μM concentrations of 1 and its metabolites were also tested for activity against P. cynomolgi schizont (large forms) and hypnozoite (small forms) liver-stage parasites cultured in rhesus monkey hepatocytes. In these experiments, the threshold for activity is 50% inhibition.

A short description of data set [5]: Pharmacokinetics in rats after IV and PO administration. The class given is in vivo, male Sprague–Dawley rats. Conditions: for metabolite in urine, percentage of the 1 dose: after IV administration of 1; for dose excreted: male, Sprague-Dawley, rat, urine, after oral administration of 1 at 27 mg/kg, read-out: recovery of metabolite in urine, percentage of the 1 dose. The method, then:
Animal studies were conducted using established procedures in accordance with the Australian Code of Practice for the Care and Use of Animals for Scientific Purposes, and the study protocols were reviewed and approved by the Monash Institute of Pharmaceutical Sciences Animal Ethics Committee. The study was conducted in overnight-fasted male Sprague–Dawley rats weighing 266–292 g. Rats had access to water ad libitum throughout the pre- and postdose sampling period, and access to food was reinstated 4 h postdose. Compound 1 was administered intravenously as a 10 min constant rate infusion via an indwelling jugular vein cannula (1 mL per rat, n = 5 rats) and orally by gavage (10 mL/kg per rat, n = 2–3 rats), and samples of arterial blood and total urine were collected up to 24 h postdose. Arterial blood was collected directly into borosilicate vials (at 4 °C) containing heparin. Blood samples were centrifuged, and the supernatant plasma was removed and stored frozen (−80 °C) until analysis by LC-MS. Plasma samples and calibration standards (prepared in blank rat plasma) were processed by protein precipitation with a 2-fold volume of acetonitrile. LC-MS analysis was conducted using a Waters Micromass Quattro Premier triple-quadrupole mass spectrometer coupled to a Waters Acquity UPLC with a Phenomenex C18 Kinetex column (50 × 2.1 mm, 2.7 μm). Elution was achieved using a methanol–water gradient (containing 8.2 mM formic acid and 1.25 mM ammonium formate) with a flow rate of 0.6 mL/min, a gradient cycle time of 6 min, and an injection volume of 2 μL. MS detection was conducted using positive electrospray ionization with multiple reaction monitoring. Transitions (m/z), cone voltages (V), and CID voltages (V) were as follows: 1, 430.26 > 99.93, 40, 20; 2, 416.27 > 99.80, 30, 20; 3, 402.22 > 99.93, 35, 20; 4, 388.23 > 99.86, 35, 20; 5: 374.25 > 72.01, 35, 25; diazepam (285.25 > […], 40, 25) (used as an internal standard). The quantitation range in plasma was typically 1–10000 ng/mL, and the accuracy and precision were within ±10% and <10%, respectively, for each analyte. Urine samples were analyzed using either a 20- or 200-fold dilution with 50% acetonitrile and assayed against calibration standards prepared in the same solvent.

The test system of data set [6] is P. vivax liver-stage parasites. As to the kind of experiment: P. vivax liver-stage in vitro assay, prophylactic mode. The class given is cell-based, Plasmodium vivax. The method, then: as §2
(§3) Compounds were prepared as 20 mM stock solutions in DMSO and tested in an eight-point semilog (1/3) dilution series from 20 μM in 384-well assay plates in both prophylactic and radical cure mode against P. vivax liver-stage parasites as previously described.[16] Following ethical approval from the Institutional Ethics Committee of the Thai Ministry of Public Health, the Ethical Review Committee of Faculty of Tropical Medicine, Mahidol University (TMEC 11-008 and 14-016), the Oxford Tropical Medicine Ethical Committee, Oxford University, England (OxTREC 17-11 and 40–14), and the Cambodian National Ethics Committee for Health Research (101NECHR), isolates of P. vivax infected blood were collected from patent volunteers in Tak province, Thailandm and Mondulkiri province, Cambodia. Samples were collected by venipuncture into heparin tubes prior to replacement of patient serum with nonimmune AB human serum and feeding to laboratory-reared Anopheles dirus cracens or An. dirus A mosquitoes via water-jacket artificial membrane feeders or the Hemotek insect feeding system (Hemotek, Blackburn, UK) set to maintain the bloodmeal temperature at 37 °C. […] Cryopreserved human hepatocytes (BioIVT, Baltimore, Maryland, USA) were thawed into InVitroGro CP Medium (BioIVT), quantified for viability by trypan blue dye exclusion, diluted to 800–1000 live cells per microliter, and 18000 live cells were plated into each well of a collagen-coated 384-well plate (Greiner, Monroe, NC, USA) by a 16-channel pipet (Finnpipette, Thermo Fisher Scientific, Waltham, MA). […]

Data set [7] concerns P. vivax liver-stage parasites. Description: P. vivax liver-stage in vitro assay, radical cure mode. The class given is cell-based, Plasmodium vivax. Conditions: Plasmodium vivax. The method, then:
as §2, §3

The mark [8] stands for this setting: 1 μM substrate, NADPH, 37 °C, 60 min, single incubation.
Where [9] appears, read: control drug, read-out: IC50 (hypnozoites).
The mark [10] stands for this setting: control drug, read-out: IC50 (schizonts).

“Also recorded” adds a separate entry of the source. Where two headings read alike, the source gives them in different places. Bounds are passed on as bounds.

For `Br.Br.Br.CCN(CC)CCN(CCN(CC)CC)c1cc(O)c(OC)cc1Br` [Compound 6, N,N-Bis[2-(diethylamino)ethyl]-2-bromo-5-hydroxy-4-methoxyaniline trihydrobromide], the “CLint of authentic metabolite incubated” value in data set [1] (setting [8]), in data set [2] and in data set [3] (setting [8]) was “very unstable; also recorded: highly unstable in all species” each time.
For `COc1cc(NC(C)CCCN)c2ncccc2c1` (centres unmarked) [primaquine], the IC50 worked out at 2700 nM in data set [4] (read-out: IC50 against the hypnozoite (small forms)) and 1100 nM in data set [4] (read-out: IC50 against the schizont (large forms)).
In the case of `CCNCCN(CCNCC)c1cc(OC)c(OC)cc1Br` [Compound 5, N,N-Bis[2-(ethylamino)ethyl]-2-bromo-4,5-dimethoxyaniline 1,5-naphthalenedisulfonate], the microsomal CLint at 1 μM in data set [1] (setting [8]) is 6 µL/min/mg; in data set [2] it was 4.4 µL/min/mg; in data set [3] (setting [8]) it was 7.3 µL/min/mg. For the same compound, the “metabolite in urine, percentage of the 1 dose” value in data set [5] was determined as 1.2%. In data set [5], the dose excreted is 3%. The “average individual metabolite formed over a 60 min incubation of 1” value was determined as 25% in data set [2] and 1.4% in data set [3].
As to `CNC(=O)c1ccc(-c2cnc3cnc(C(=O)N(C)c4ccc(Cl)cc4)cn23)cc1` [KDU691, reference compound], the values for the IC50 in data set [6] (setting [9]) and in data set [6] (setting [10]) were 53.5 nM and 11.4 nM, respectively.
For the compound `CCNCCN(CCN(CC)CC)c1cc(OC)c(OC)cc1Br` [Compound 3, N-[2-(Ethylamino)ethyl]-N-[2-(diethylamino)ethyl]-2-bromo-4,5-dimethoxyaniline 1,5-Naphthalenedisulfonate], the values for the microsomal CLint at 1 μM in data set [1] (setting [8]), in data set [2] and in data set [3] (setting [8]) were under 3 µL/min/mg, 24 µL/min/mg and 19 µL/min/mg, respectively. The entries for the “average individual metabolite formed over a 60 min incubation of 1” value in data set [1], in data set [2] and in data set [3] were 1.6%, 64% and 20%, respectively. Also, the “metabolite in urine, percentage of the 1 dose” value in data set [5] is recorded as 1.7%. Further, the dose excreted in data set [5] was 3.3%.
As for `CCNCCN(CCN(CC)CC)c1cc(OC)c(O)cc1Br` [Compound 4, N-[2-(Ethylamino)ethyl]-N-[2-(diethylamino)ethyl]-2-bromo-4-hydroxy-5-methoxyaniline 1,5-Naphthalenedisulfonate], the microsomal CLint at 1 μM is under 3 µL/min/mg in data set [1] (setting [8]), 45 µL/min/mg in data set [2] and 12 µL/min/mg in data set [3] (setting [8]). In addition, the inhibition at 10 µM in data set [4] (10 μM, first run, read-out: inhibition of growth of the schizont (large forms)) turned out to be 70%. Further, the half-inhibitory concentration (IC50) in data set [6] (Plasmodium vivax, n = 3, read-out: IC50 against schizonts) is 2630 nM; in data set [7] (n = 2, read-out: IC50 against schizonts), 15500 nM. For the same compound, the “average individual metabolite formed over a 60 min incubation of 1” value in data set [2] is 6.4%; in data set [3] it was 2.4%.
As to `CCN(CC)CCN(CCN(CC)CC)c1cc(OC)c(O)cc1Br` [Compound 2, N,N-Bis[2-(diethylamino)ethyl]-2-bromo-4-hydroxy-5-methoxyaniline 1,5-Naphthalenedisulfonate], the microsomal CLint at 1 μM in data set [1] (setting [8]) is under 3 µL/min/mg; in data set [2], 264 µL/min/mg; in data set [3] (setting [8]), 8 µL/min/mg. Further, the entries for the “average individual metabolite formed over a 60 min incubation of 1” value in data set [1] and in data set [3] were 0.2% and 15%, respectively. In data set [2], the “CLint of authentic metabolite incubated” value is on record as “highly unstable”.
`CC[C@@]1([C@@H]2O[C@@H]([C@H]3O[C@@](O)(CO)[C@H](C)C[C@@H]3C)C[C@@H]2C)CC[C@H]([C@]2(C)CC[C@]3(C[C@H](O)[C@@H](C)[C@@H]([C@@H](C)[C@@H](OC)[C@H](C)C(=O)O)O3)O2)O1` [monensin, reference compound]: the results for the IC50 in data set [7] (setting [9]) and in data set [7] (setting [10]) were 102 nM and 12.4 nM, respectively.
